Source: paper PMC3409373, “Ellagic acid, a phenolic compound, exerts anti-angiogenesis effects via VEGFR-2 signaling pathway in breast cancer” (Breast Cancer Research and Treatment, 2012)

Biological target: T1, VEGFR-2 (Homo sapiens, UniProt P35968)
T1 construct: gene KDR
Assay: ELISA-based tyrosine kinase assay with VEGFR-2 (Upstate), poly-Glu-Tyr substrate, Mg2+ and ATP
Assay type: biochemical

T1 sequence (P35968 20-1356): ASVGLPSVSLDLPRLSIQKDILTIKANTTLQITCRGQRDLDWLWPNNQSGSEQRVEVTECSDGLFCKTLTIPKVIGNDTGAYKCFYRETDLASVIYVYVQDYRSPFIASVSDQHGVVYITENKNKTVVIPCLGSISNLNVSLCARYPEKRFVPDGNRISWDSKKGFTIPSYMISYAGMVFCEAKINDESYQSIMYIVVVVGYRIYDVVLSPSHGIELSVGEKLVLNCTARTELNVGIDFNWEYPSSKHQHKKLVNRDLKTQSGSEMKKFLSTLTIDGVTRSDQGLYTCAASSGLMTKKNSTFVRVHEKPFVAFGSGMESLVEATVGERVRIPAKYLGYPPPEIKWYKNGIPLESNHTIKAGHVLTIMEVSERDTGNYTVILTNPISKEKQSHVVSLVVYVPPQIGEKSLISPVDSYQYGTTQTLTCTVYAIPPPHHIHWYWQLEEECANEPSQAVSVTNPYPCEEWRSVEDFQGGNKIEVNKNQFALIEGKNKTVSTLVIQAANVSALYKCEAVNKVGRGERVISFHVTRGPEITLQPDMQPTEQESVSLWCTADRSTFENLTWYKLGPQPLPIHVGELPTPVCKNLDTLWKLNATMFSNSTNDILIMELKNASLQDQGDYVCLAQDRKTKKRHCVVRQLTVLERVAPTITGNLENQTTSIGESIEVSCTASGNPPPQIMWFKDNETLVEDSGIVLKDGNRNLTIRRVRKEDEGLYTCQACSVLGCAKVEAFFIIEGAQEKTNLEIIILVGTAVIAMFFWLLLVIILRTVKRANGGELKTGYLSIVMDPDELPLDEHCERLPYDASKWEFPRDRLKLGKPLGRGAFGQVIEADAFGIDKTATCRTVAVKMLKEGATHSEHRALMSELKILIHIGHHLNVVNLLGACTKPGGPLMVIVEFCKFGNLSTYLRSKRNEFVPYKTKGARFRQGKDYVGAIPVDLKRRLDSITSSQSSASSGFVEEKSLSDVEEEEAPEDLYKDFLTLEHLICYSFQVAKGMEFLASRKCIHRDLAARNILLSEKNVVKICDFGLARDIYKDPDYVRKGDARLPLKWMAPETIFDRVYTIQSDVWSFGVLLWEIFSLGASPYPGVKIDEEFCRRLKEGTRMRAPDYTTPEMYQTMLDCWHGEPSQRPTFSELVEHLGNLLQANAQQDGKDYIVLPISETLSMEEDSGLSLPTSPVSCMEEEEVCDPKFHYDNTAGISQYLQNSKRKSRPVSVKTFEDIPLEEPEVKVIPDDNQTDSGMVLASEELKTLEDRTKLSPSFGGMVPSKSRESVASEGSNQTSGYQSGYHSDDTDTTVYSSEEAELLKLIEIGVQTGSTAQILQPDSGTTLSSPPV

O=c1oc2c(O)c(O)cc3c(=O)oc4c(O)c(O)cc1c4c23 [ellagic acid, 4,4′,5,5′6, 6′-hexahydroxydiphenic acid 2,6,2′6′-dilactone]
IC50: ~25.8 nM
